Columns and labels:
Assay in all cases: relative viability (nuclei count vs DMSO), 5 days (fraction); higher = more cells survive
NCI-H1299 = system: NCI-H1299
How it was run: (§1)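 Lung cancer cell lines in 1536-well plates were dosed by pin tool the day after seeding, either with one drug alone or with a fixed anchor-drug dose plus five library-drug doses (not always all listed) in √10 steps. After 5 days, cells were fixed and their nuclei stained in one step (final 0.05% Triton X-100, 1% formaldehyde, 1 ug/ml Hoechst), then counted on 4× images. Relative viability is the nuclei count in treated wells divided by that in vehicle wells. Values are medians of duplicate plates.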

PC-3 [JPC-3] = system: PC-3 [JPC-3]
How it was run: as §1

EBC-1 = system: EBC-1
How it was run: as §1

IA-LM = system: IA-LM
How it was run: as §1

NCI-H1651 = system: NCI-H1651
How it was run: as §1

NCI-H1944 = system: NCI-H1944
How it was run: as §1

RERF-LC-KJ = system: RERF-LC-KJ
How it was run: as §1

Calu-6 = system: Calu-6
How it was run: as §1

A549 = system: A549
How it was run: as §1

NCI-H838 = system: NCI-H838
How it was run: as §1

NCI-H1703 = system: NCI-H1703
How it was run: as §1

NCI-H520 = system: NCI-H520
How it was run: as §1

NCI-H650 = system: NCI-H650
How it was run: as §1

SMILES: COc1cc2nccc(Oc3ccc(NC(=O)Nc4cc(C)on4)c(Cl)c3)c2cc1OC [Tivozanib] + CC1(C)CCC(c2ccc(Cl)cc2)=C(CN2CCN(c3ccc(C(=O)NS(=O)(=O)c4ccc(N[C@H](CCN5CCOCC5)CSc5ccccc5)c(S(=O)(=O)C(F)(F)F)c4)cc3)CC2)C1 [Navitoclax] (partner 0.5 µM)
- relative viability (NCI-H1299; first compound 0.005 µM): 1.03
- relative viability (NCI-H1299; first compound 0.01581 µM): 1.07
- relative viability (NCI-H1299; first compound 0.05 µM): 1.05
- relative viability (NCI-H1299; first compound 0.1581 µM): 1.05
- relative viability (NCI-H1299; first compound 0.5 µM): 0.981
- relative viability (PC-3 [JPC-3]; first compound 0.005 µM): 0.735
- relative viability (PC-3 [JPC-3]; first compound 0.01581 µM): 0.87
- relative viability (PC-3 [JPC-3]; first compound 0.05 µM): 0.772
- relative viability (PC-3 [JPC-3]; first compound 0.1581 µM): 0.788
- relative viability (PC-3 [JPC-3]; first compound 0.5 µM): 0.809
- relative viability (EBC-1; first compound 0.005 µM): 0.359
- relative viability (EBC-1; first compound 0.01581 µM): 0.437
- relative viability (EBC-1; first compound 0.05 µM): 0.528
- relative viability (EBC-1; first compound 0.1581 µM): 0.436
- relative viability (EBC-1; first compound 0.5 µM): 0.485
- relative viability (IA-LM; first compound 0.005 µM): 0.728
- relative viability (IA-LM; first compound 0.01581 µM): 0.899
- relative viability (IA-LM; first compound 0.05 µM): 0.737
- relative viability (IA-LM; first compound 0.1581 µM): 0.574
- relative viability (IA-LM; first compound 0.5 µM): 0.582
- relative viability (NCI-H1651; first compound 0.005 µM): 0.979
- relative viability (NCI-H1651; first compound 0.01581 µM): 0.934
- relative viability (NCI-H1651; first compound 0.05 µM): 1.09
- relative viability (NCI-H1651; first compound 0.1581 µM): 0.983
- relative viability (NCI-H1651; first compound 0.5 µM): 1.15
- relative viability (NCI-H1944; first compound 0.005 µM): 1.08
- relative viability (NCI-H1944; first compound 0.01581 µM): 1.02
- relative viability (NCI-H1944; first compound 0.05 µM): 1.05
- relative viability (NCI-H1944; first compound 0.1581 µM): 0.891
- relative viability (NCI-H1944; first compound 0.5 µM): 1.1
- relative viability (RERF-LC-KJ; first compound 0.005 µM): 0.872
- relative viability (RERF-LC-KJ; first compound 0.01581 µM): 0.828
- relative viability (RERF-LC-KJ; first compound 0.05 µM): 1.13
- relative viability (RERF-LC-KJ; first compound 0.1581 µM): 1.37
- relative viability (RERF-LC-KJ; first compound 0.5 µM): 1.07
- relative viability (Calu-6; first compound 0.005 µM): 0.739
- relative viability (Calu-6; first compound 0.01581 µM): 0.896
- relative viability (Calu-6; first compound 0.05 µM): 0.798
- relative viability (Calu-6; first compound 0.1581 µM): 0.874
- relative viability (Calu-6; first compound 0.5 µM): 0.74
- relative viability (A549; first compound 0.005 µM): 1.22
- relative viability (A549; first compound 0.01581 µM): 1.32
- relative viability (A549; first compound 0.05 µM): 1.14
- relative viability (A549; first compound 0.1581 µM): 1.23
- relative viability (A549; first compound 0.5 µM): 1.19
- relative viability (NCI-H838; first compound 0.005 µM): 1.09
- relative viability (NCI-H838; first compound 0.01581 µM): 1.16
- relative viability (NCI-H838; first compound 0.05 µM): 1.2
- relative viability (NCI-H838; first compound 0.5 µM): 1.12
- relative viability (NCI-H1703; first compound 0.005 µM): 0.369
- relative viability (NCI-H1703; first compound 0.01581 µM): 0.244
- relative viability (NCI-H1703; first compound 0.05 µM): 0.219
- relative viability (NCI-H1703; first compound 0.1581 µM): 0.251
- relative viability (NCI-H1703; first compound 0.5 µM): 0.249
- relative viability (NCI-H520; first compound 0.005 µM): 1.09
- relative viability (NCI-H520; first compound 0.01581 µM): 0.962
- relative viability (NCI-H520; first compound 0.05 µM): 0.969
- relative viability (NCI-H520; first compound 0.1581 µM): 0.782
- relative viability (NCI-H520; first compound 0.5 µM): 0.887

SMILES: COc1cc2nccc(Oc3ccc(NC(=O)Nc4cc(C)on4)c(Cl)c3)c2cc1OC [Tivozanib] + CC(C)C[C@H](NC(=O)[C@H](Cc1ccccc1)NC(=O)c1cnccn1)B(O)O [Bortezomib] (partner 0.002 µM)
- relative viability (NCI-H1299; first compound 0.005 µM): 1.05
- relative viability (NCI-H1299; first compound 0.01581 µM): 1.02
- relative viability (NCI-H1299; first compound 0.05 µM): 1.01
- relative viability (NCI-H1299; first compound 0.1581 µM): 1.06
- relative viability (NCI-H1299; first compound 0.5 µM): 0.958
- relative viability (PC-3 [JPC-3]; first compound 0.005 µM): 0.82
- relative viability (PC-3 [JPC-3]; first compound 0.01581 µM): 0.855
- relative viability (PC-3 [JPC-3]; first compound 0.05 µM): 0.847
- relative viability (PC-3 [JPC-3]; first compound 0.1581 µM): 0.835
- relative viability (PC-3 [JPC-3]; first compound 0.5 µM): 0.794
- relative viability (NCI-H650; first compound 0.005 µM): 0.447
- relative viability (NCI-H650; first compound 0.01581 µM): 0.956
- relative viability (NCI-H650; first compound 0.05 µM): 0.833
- relative viability (NCI-H650; first compound 0.1581 µM): 0.579
- relative viability (NCI-H650; first compound 0.5 µM): 0.497
- relative viability (EBC-1; first compound 0.005 µM): 0.5
- relative viability (EBC-1; first compound 0.01581 µM): 0.561
- relative viability (EBC-1; first compound 0.05 µM): 0.624
- relative viability (EBC-1; first compound 0.1581 µM): 0.511
- relative viability (EBC-1; first compound 0.5 µM): 0.477
- relative viability (IA-LM; first compound 0.005 µM): 0.716
- relative viability (IA-LM; first compound 0.01581 µM): 0.812
- relative viability (IA-LM; first compound 0.05 µM): 0.821
- relative viability (IA-LM; first compound 0.1581 µM): 0.623
- relative viability (IA-LM; first compound 0.5 µM): 0.614
- relative viability (NCI-H1651; first compound 0.005 µM): 0.895
- relative viability (NCI-H1651; first compound 0.01581 µM): 0.985
- relative viability (NCI-H1651; first compound 0.05 µM): 1.02
- relative viability (NCI-H1651; first compound 0.1581 µM): 0.865
- relative viability (NCI-H1651; first compound 0.5 µM): 0.986
- relative viability (RERF-LC-KJ; first compound 0.005 µM): 1.11
- relative viability (RERF-LC-KJ; first compound 0.01581 µM): 1.06
- relative viability (RERF-LC-KJ; first compound 0.05 µM): 1.11
- relative viability (RERF-LC-KJ; first compound 0.1581 µM): 0.83
- relative viability (RERF-LC-KJ; first compound 0.5 µM): 1.03
- relative viability (Calu-6; first compound 0.005 µM): 0.904
- relative viability (Calu-6; first compound 0.01581 µM): 1.08
- relative viability (Calu-6; first compound 0.05 µM): 0.986
- relative viability (Calu-6; first compound 0.1581 µM): 0.965
- relative viability (Calu-6; first compound 0.5 µM): 0.95
- relative viability (NCI-H838; first compound 0.005 µM): 0.939
- relative viability (NCI-H838; first compound 0.01581 µM): 0.877
- relative viability (NCI-H838; first compound 0.05 µM): 0.924
- relative viability (NCI-H838; first compound 0.5 µM): 0.723
- relative viability (NCI-H1703; first compound 0.005 µM): 0.247
- relative viability (NCI-H1703; first compound 0.01581 µM): 0.186
- relative viability (NCI-H1703; first compound 0.05 µM): 0.154
- relative viability (NCI-H1703; first compound 0.1581 µM): 0.167
- relative viability (NCI-H1703; first compound 0.5 µM): 0.164
- relative viability (NCI-H520; first compound 0.005 µM): 0.575
- relative viability (NCI-H520; first compound 0.01581 µM): 0.693
- relative viability (NCI-H520; first compound 0.05 µM): 0.645
- relative viability (NCI-H520; first compound 0.1581 µM): 0.519
- relative viability (NCI-H520; first compound 0.5 µM): 0.605
